Laboratory results as given in patent publication US10183936B2, “Hepatitis B core protein allosteric modulators” (priority 2014, dated 2019).

Experiments:
AD38 cells = test: Viability of AD38 cells (Promega CellTiter-Glo) at the end of compound treatment; type: cell-based; settings: 10 μM compound, 6 days, luminescence normalized against DMSO control wells (controls being 100%)
In short: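 AD38 cells seeded at 50,000/well received compound from a 10× solution in 10% DMSO and were incubated 6 days at 37° C. Viability was then read by CellTiter-Glo luminescence in tetracycline-free medium with 2% FBS and 1% DMSO, normalized to DMSO control wells (100%) and reported as percent viability.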

[1] = test system: HBV viral production in AD38 cells; test: Viral load production in AD38 cells by quantitative PCR of the HBV core sequence in supernatant; type: cell-based; settings: Hepatitis B virus, 144 h; 10 μM compound, 6 days at 37° C., viral load in supernatant compared against DMSO control wells; read-out: AD38 Viral Load (CpAM/DMSO %) at 10 μM
In short: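 AD38 cells seeded at 50,000/well, treated 6 days at 37° C with compound added as 10× solution in 10% DMSO. HBV core sequence in clarified supernatant quantified by TaqMan qPCR against known standards; viral load compared with DMSO control wells.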

| Structure (SMILES) | AD38 Viability Normalized Result (CPAM/DMSO %) at 10 μM (AD38 cells) [%] | activity at 10 µM [1] [%] |
| --- | --- | --- |
| O=C1Nc2cc(S(=O)(=O)NCc3ccc(F)cc3)ccc2Sc2ccccc21 [Compound 1415] | 77 | 27 |
| Cc1nnc(CNC(=O)c2ccc3c(c2)NC(=O)c2ccccc2S3)o1 [Compound 1578] | 100 | 33 |
| CN(C)CCOc1ccc(CCNC(=O)c2ccc3c(c2)NC(=O)c2ccccc2S3)cc1 [Compound 1154] | 50 | 90 |
| O=C(NCCc1cccnc1)c1ccc2c(c1)NC(=O)c1ccccc1[S+]2[O-] (stereo not shown) [Compound 1389] | 89 | 15 |
| O=C(NCC1CCCO1)c1ccc2c(c1)NC(=O)c1ccccc1S2 (stereo not shown) [Compound 1592] | 102 | 50 |
| O=C(NCc1cnc(Cl)s1)c1ccc2c(c1)NC(=O)c1ccccc1S2 [Compound 1589] | 85 | 1 |
| O=C1Nc2cc(S(=O)(=O)N3CCCC3)ccc2Sc2ccccc21 [Compound 1432] | 91 | 79 |
| O=C(O)c1ccc(-c2cccc(NC(=O)c3ccc4c(c3)NC(=O)c3cc(F)ccc3S4)c2)cc1 [Compound 1419, 3′-(2-fluoro-11-oxo-10, 11-dihydrodibenzo [b,f] [1,4]thiazepine-8-carboxamido)-[1, 1′-biphenyl]-4-carboxylic acid] | 89 | 113 |
| O=C(NC(CO)Cc1cncnc1)c1ccc2c(c1)NC(=O)c1cc(F)ccc1S2 (stereo not shown) [Compound 1361, 2-fluoro-N-(1-hydroxy-3-(pyrimidin-5-yl)propan-2-yl)-11-oxo-10, 11-dihydrodibenzo [b,f] [1,4] thiazepine-8-carboxamide] | 113 | 79 |
| NC(=O)c1ccc2c(c1)Sc1ccc(C(=O)NCCc3ccccc3)cc1NC2=O [Compound 1279] | 84 | 55 |
| O=C(NCc1ccc(-c2cncnc2)cc1)c1ccc2c(c1)NC(=O)c1ccccc1S2(=O)=O [Compound 1627] | 115 | 5 |
| O=C(NCCc1ccc(-n2cncn2)cc1)c1ccc2c(c1)NC(=O)c1ccccc1S2 [Compound 1249] | 108 | 34 |
| O=C(NCc1nnc[nH]1)c1ccc2c(c1)NC(=O)c1ccccc1S2 [Compound 1599] | 101 | 72 |
| O=C(NCCCCC1CCCCC1)c1ccc2c(c1)NC(=O)c1ccccc1S2 [Compound 1150] | 22 | 1 |
| O=C(NCCc1ccc(-c2ccccc2)cc1)c1ccc2c(c1)NC(=O)c1ccccc1N2Cc1ccccc1 [Compound 1483] | 98 | 65 |
| O=C(NCCc1cccc(F)c1)c1ccc2c(c1)NC(=O)c1ccccc1S2 [Compound 1130] | 101 | 2 |
| O=C(NCCC1CCCCC1)c1ccc2c(c1)NC(=O)c1ccc(Cl)cc1S2 [Compound 1250] | 113 | 14 |
| O=C(NCc1scnc1Cl)c1ccc2c(c1)NC(=O)c1ccccc1S2 [Compound 1632] | 122 | 2 |
| O=C(NCCc1cncs1)c1ccc2c(c1)NC(=O)c1ccccc1N2Cc1ccccc1 [Compound 1511] | 85 | 38 |
| CC(Cc1cccc(O)c1)NC(=O)c1ccc2c(c1)NC(=O)c1ccccc1S2 (stereo not shown) [Compound 1177] | 118 | 47 |
| O=C(Nc1ccc(F)cc1F)c1ccc2c(c1)NC(=O)c1cc(F)ccc1S2 [Compound 1318] | 70 | 14 |
| CN(C)S(=O)(=O)c1ccc(CCNC(=O)c2ccc3c(c2)NC(=O)c2cccc(F)c2S3)cc1 [Compound 1488] | 97 | 84 |
| COc1ccc2c(c1)Sc1ccc(C(=O)NCCC3CCCCC3)cc1NC2=O [Compound 1271] | 100 | 6 |
| O=C(NCc1cncnc1)c1ccc2c(c1)NC(=O)c1ccccc1[S+]2[O-] (stereo not shown) [Compound 1373] | 100 | 10 |
| O=C(Nc1ncco1)c1ccc2c(c1)NC(=O)c1cc(F)ccc1S2 [Compound 1353] | 97 | 50 |
| C[C@@H](O)CNC(=O)c1ccc2c(c1)NC(=O)c1ccccc1S2 [Compound 1221] | 106 | 19 |
